Measured values: article PMC6271559, “Synthesis and Evaluation of 2,4-Disubstituted Quinazoline Derivatives with Potent Anti-Angiogenesis Activities” (Molecules, 2014)
Read-outs that look alike come from different tables or passages of the source.

Assays:
[1] = system: CNE-2 (human nasopharyngeal cancer) cells; assay: MTT cytotoxicity assay, CNE-2; type: cell-based; conditions: 48 h, mean of three independent assays
Description: (§1) In the early 80s, scientists proposed anti-angiogenesis as a potential target in cancer therapy. Much research in the past 30 years has targeted tumor angiogenesis as a means of inhibiting the process of tumor-caused blood vessel formation. Endothelial cells, which come from the inner lining of blood vessels, makes up a fundamental part of new blood vessels as well as pre-existing ones. A complete angiogenesis process includes the proliferation, migration, and differentiation of endothelial cells, so a great deal of angiogenesis inhibitors discovered to date target endothelial cells. We thus employed a cell proliferation assay to evaluate the cytotoxicity of quinazoline derivatives against both normal (HUVEC) and tumor cell lines (CNE-2, PC-3, and SMMC-7721 cell lines) so we can screen some molecules that have cytotoxicity against tumor cells but low cytotoxicity against HUVECs. Meanwhile, an appropriate concentration range of these compounds could be determined to further study their inhibitive effects against the proliferation, migration, and differentiation of HUVECs. The cytotoxic activities of quinazoline derivatives against human tumor cell lines CNE-2 (human nasopharyngeal cancer), PC-3 (human prostatic carcinoma), SMMC-7721 (human liver cancer) and Human Umbilical Vein Endothelial Cells (HUVECs) were determined by using the MTT cytotoxicity assay.
(§2) HUVEC, CNE-2, PC-3, and 7721 cell lines were seeded on 96-well plates at a concentration of 5,000 cells per well and exposed to various concentrations of quinazoline derivatives. After 48 h of treatment at 37 °C in a humidified atmosphere of 5% CO2, 5 mg/mL MTT solution (10 μL) was added to each well and further incubated for 4 h. Each well was then added dimethyl sulfoxide (DMSO, 100 μL), and the optical density (OD) was recorded at 490 nm. All measurements were done in triplicate, and the IC50 values were derived from the mean OD values of the triplicate tests versus drug concentration curves.

[2] = system: HUVEC adhesion to collagen; assay: HUVEC adhesion assay on type I collagen; type: cell-based, human; conditions: Homo sapiens, HUVEC, adhesion of HUVEC on collagen, 37 °C
Description: A perfect angiogenesis inhibitor must be show lower toxicity toward HUVECs, while showing high inhibitive capability towards the proliferation, migration, and differentiation of HUVECs. To assess the inhibitory effects of 2,4-disubstituted quinazoline derivatives, three assays were used: HUVEC adhesion assay, HUVEC migration assay and CAM assay. Firstly, to test the inhibitory effects of quinazoline derivatives on the attachment of endothelial cells to type I collagen, cell adhesion assays were carried out.
Cell adhesion assay was carried out by a reported method with slight modification. Wells of a 96-well plate were coated at room temperature overnight with rat trail tendon collagen type I (2 μg) in PBS in a final volume of 100 μL. The wells were washed three times with PBS ([…]) and then blocked with 0.2% bovine serum albumin (BSA) in PBS ([…]) for 2 h at 37 °C in a cell culture incubator. The wells were then washed three times with PBS ([…]). HUEVCs were detached from the dish, resuspended in DMEM, and added (50 μL, 10^4 cells/mL) to each well followed by the related compounds (50 μL) at various concentrations. The plates were incubated for 1 h or 3 h at 37 °C and then washed three times with PBS (100 μL). The attached cells were fixed and stained with 0.2 % crystal violet in 20% methanol for 10 min, then washed three times with PBS ([…]). The cells were solubilized by 2% SDS and the OD was measured at 570 nm. Attachment was determined by both 1 and 3 h as described above. Each compound was tested in triplicate and each experiment was repeated three times.

[3] = MTT cytotoxicity assay, HUVEC; type: cell-based; conditions: human, HUVEC (human umbilical vein endothelial cells), mean of three independent assays
Description: as §1, §2

[4] = system: chick embryo chorioallantoic membrane (CAM); assay: CAM angiogenesis assay; type: in vivo; conditions: 30 μg/10 μL on filter disc, 48 h
Protocol: CAMs treated with 0.9% NaCl solution (negative control) were surrounded by all antoic vessels as newly-formed capillaries converging radially toward the sponge in a “spoked wheel” pattern (number of vessels 24 ± 3).
The in vivo CAM angiogenesis model as initially described by Folkman and then modified by Maragoudakis was used. Fertilized chicken eggs were used after incubating them for 8 days. A 1 cm × 1 cm window was made in the shell to create a pocket to expose the CAM. A filter disc with 0.9% NaCl solution or 30 μg/10 μL of compounds was then placed upon the CAM from 10 eggs per treatment and 48 h later, the CAMs were fixed with 4% paraformaldehyde and the vessel number from three random fields around the filter disc were pictured using a microscope.

[5] = system: PC-3 (human prostatic carcinoma) cells; assay: MTT cytotoxicity assay, PC-3; type: cell-based; conditions: Prostatic carcinoma cell, 48 h, mean of three independent assays
Description: as §1, §2

HUVEC migration = HUVEC migration (wounding) assay; type: cell-based, human; conditions: 15 μM and 30 μM, 24 h
Protocol: Compounds were tested at concentrations of both 15 μM and 30 μM, and all seven compounds tested in this assay could inhibit HUVEC migration.
The HUVEC cell line was seeded on a pre-treated 48-well culture plate at a concentration of 2 × 10^4 cells per well in a volume of 200 μL, and a portion of the cell monolayer was scraped off with a sterile disposable rubber policeman. After the DMEM medium was removed, the cells in each well were then washed three times with PBS (phosphate-buffer saline), and fresh medium was added to each well. The wells were then tested after incubation for 24 h with or without quinazoline derivatives at various concentrations. Two random pictures were taken for each wound using a microscope. The area of the migrations was measured using Photoshop CS3. All measurements were done in triplicate, and the experiments were done at least three times.

[6] = system: SMMC-7721 (human liver cancer) cells; assay: MTT cytotoxicity assay, SMMC-7721; type: cell-based; conditions: 48 h, mean of three independent assays
Description: as §1, §2

With `CN(C)CCCNc1nc(-c2ccccc2NC(=O)CCN2CCN(C)CC2)nc2ccccc12` [Compound 11d, N-(2-(4-(3-(Dimethylamino)propylamino)quinazolin-2-yl)phenyl)-3-(4-methylpiperazin-1-yl)propane-mide] the IC50 [1] was 9.3 ± 0.2 µM, the inhibition at 15 µM ([2]; 1 h, 1 h, read-out: 1 h Inhibition Rate % Dose 15 μM) was 47.4 ± 0.1% and the inhibition at 30 µM ([2]; 1 h, 1 h, read-out: 1 h Inhibition Rate % Dose 30 μM) was 65.8 ± 0.2%. For the same compound, the inhibition at 15 µM ([2]; 3 h, 3 h, read-out: 3 h Inhibition Rate % Dose 15 μM) was 53.3 ± 0.3%, the inhibition at 30 µM ([2]; 3 h, 3 h, read-out: 3 h Inhibition Rate % Dose 30 μM) was 71.2 ± 0.1% and the IC50 at 48 h [3] was 47.2 ± 0.2 µM. The “inhibition of angiogenesis in CAM assay” value [4] was “excellent inhibition of angiogenesis”, the IC50 [5] was 9.8 ± 0.3 µM and the melting point was 167 to 168 °C. The “inhibition of HUVEC migration” value (HUVEC migration) was “best inhibitory activity” and the IC50 [6] was 10.9 ± 0.2 µM.
